Reference: US11364285B2, “Methods, compositions, and molecular targets that exploit synergies and symbioses in the termite gut” (priority 2016, dated 2022)

Key:
[1] = tested on: termite workers challenged with B. bassiana; experiment: Post-hoc bioassay of termite susceptibility to B. bassiana after kanamycin; format: in vivo, R. flavipes
Method: Similarly, post-hoc bioassays were performed to determine if 5% kanamycin treatment was sufficient to increase termite susceptibility to B. bassiana. As above, groups of 10 termites were treated with 5% kanamycin or water (controls) for 48-hours, and then inoculated with a low dose of B. bassiana conidia suspended in 0.5% Tween-20 or a blank of 0.5% Tween-20 solution (controls). All together, these four groups allowed the investigators to account for any baseline mortality caused by antibiotic treatment. These bioassays were held for 7 days before scoring survivorship.

amidohydrolase 2 gene = experiment: qPCR of amidohydrolase 2 expression after kanamycin treatment and B. bassiana challenge; format: in vivo, R. flavipes; settings: 5% kanamycin 48 h, then B. bassiana; compared to water treated controls
Text: To investigate whether symbiont removal reduced amidohydrolase expression, groups of 10 workers from three independent colonies were subjected to a treatment of 5% kanamycin (controls received water only) for 48-hours and subsequently challenged with a low dose of B. bassiana conidia (as above). 5% Kanamycin was used for bacterial symbiont removal based on extensive preliminary research. These bioassays were held for 48-hours before termite guts were dissected for RNA extraction. cDNA was synthesized using the Bioline SensiFast cDNA Synthesis kit using 1 μg total RNA as template. qPCR was performed using the SensiFast no ROX SYBR Master Mix (Bioline) and amidohydrolase 2 gene specific primers as well as Actin 5C as a reference gene (see Table S.2 of the Peterson & Scharf Article).

[2] = tested on: host gut and protist/symbiont genes; format: in vivo
Method: After two days, a subset of ten termites was removed from each of the replicate colony treatments (20 total samples), cold-immobilized, surface-sterilized by a serial rinse in 0.3% sodium hypochlorite (1×) and sterilized water (2×), and dissected on Parafilm to collect digestive tracts, including salivary glands. Digestive tracts were transferred into RLA Lysis Buffer (Promega, Fitchburg, Wis., USA) and stored at −70° C. until RNA isolation. RNA extraction and cDNA synthesis was performed.
Experiments were designed after MIAME guidelines. A type II microarray design was used with a common-reference strategy. The common reference consisted of a normalized blend of all RNA samples included in the experiment. This common reference was co-hybridized against each replicate sample on single microarrays. Dye swaps were performed between replicate samples and references to check for potential dye impacts on spot intensity. […] Specifically, such microarrays contained a mix of ˜14,500 cDNA oligonucleotides representing 10,500 host gut and protist/symbiont genes, including stereotypical immune response genes, thereby providing simultaneous assessments of host and protist gene expression. Reported analyses consisted of five pairwise comparisons to a common control as denoted by the numbers 1-5 in FIG. 4. More specific microarray data are provided in S15-S20 Tables of Sen et al. 2015, PLoS ONE 10(4): e0123391 (the “Sen Article”), which is hereby incorporated by reference herein in its entirety. […] Genbank accession numbers for sequences at each microarray position are provided in S21-S23 Tables of the Sen Article.
Before comparative analysis, the individual signal intensity values obtained from the microarray probes were log-transformed (using 2 as the base) and normalized among all individual samples included in the study. […] After the data were normalized, t-tests were used to make probe-by-probe comparisons among treatments. In each comparison, a p-value and fold change were computed for all microarray loci. In addition to p-values, q-values were computed. While the p-value measures the minimum statistical false-positive rate incurred when setting a threshold for test significance, the q-value measures the minimum false-discovery rate incurred when calling that test significant.
The generated contigs and the remaining orphan sequences were used for further analyses using the program BLAST2GO for identification and annotation. By using the inbuilt BLASTx algorithm, these sequences were used as queries in BLASTx searches against the Genbank non-redundant (nr) database with an e-value cut-off of ≤1e-03. The putative identification, annotation, and Gene Ontology (GO) terms for the sequences also were obtained through BLAST2GO. KEGG analyses were also performed.

[3] = tested on: hindgut protist symbiont populations; experiment: Protist counts after imidacloprid treatment; format: in vivo, R. flavipes; settings: 48 hr imidacloprid exposure
Method: To determine if imidacloprid indirectly or directly impacted protist and bacteria gut symbiont populations, post-hoc tests were performed using multiple independent termite colonies. Protist counts were made using five laboratory colonies as previously described. Bacterial CFU counts were done via aerobic culturing using two laboratory colonies; one that had been in the lab for >2 years (“colony 1”) and one collected from the field 1 month earlier (“colony 2”). […] Whole guts dissected from individual termites were sonicated in 250 μL of PBS, serially diluted, and spotted (2 μL) onto nutrient agar plates.

Reticulitermes flavipes = experiment: Termite behavior and pathology observed in the bioassays (grooming, tunneling, light repellency); format: in vivo; settings: sublethal concentration
[4] = tested on: aerobic, culturable bacterial community from the R. flavipes digestive tract; experiment: Imidacloprid-loaded discs on plated gut homogenates; format: cell-based; settings: concentrations of 1-1000-fold higher than used in the feeding assays
Method: (§1) After incubation at 26° C. for 24 hours, plates were examined—spots producing 3-10 CFUs were used to estimate the total number of aerobic culturable bacteria per termite. In addition, dilutions of gut homogenates were directly plated onto nutrient agar; discs loaded with serial dilutions of imidacloprid were added to these plates to examine its direct impact on the culturable bacteria.

[5] = tested on: gut bacteria (16S rDNA abundance); experiment: 16S qPCR of relative bacterial DNA abundance in guts; format: in vivo, R. flavipes; settings: 48 hours exposure; two colonies
Method: as §1
DNA was isolated from termite whole guts following control or imidacloprid treatments in bioassays using the Epicentre Yeast DNA extraction kit, including RNase treatment (Madison, Wis.). Following isolation, DNA samples were subjected to phenol-chloroform cleanup and concentrated using sodium acetate-ethanol precipitation. qPCR reactions were performed in triplicate with SensiFast SYBR No ROX kit (Bioline; Taunton, Mass.), 50 ng of sample DNA, nuclease-free water, and degenerate 16S rDNA primers. Primers amplified a 291 bp fragment containing the V4 hypervariable region of the 16S rRNA gene. Host DNA was quantified using primers specific to an apparent single-copy host gene, Actin 5C-1. Data were normalized to Actin 5C-1 to determine the relative abundance of 16S amplicons in the control and imidacloprid-treated DNA preparations.

[6] = gut, 2 days post-exposure, vs solvent control
[7] = passing array positions, before contig formation

Structure (SMILES): NC[C@H]1O[C@H](O[C@H]2[C@H](O)[C@@H](O[C@H]3O[C@H](CO)[C@@H](O)[C@H](N)[C@H]3O)[C@H](N)C[C@@H]2N)[C@H](O)[C@@H](O)[C@@H]1O [kanamycin]
- Increase in termite susceptibility to B. bassiana ([1]; 5% kanamycin 48 h, normalized mortality at 7 days post inoculation): 3 ×
- Increase in termite worker susceptibility to B. bassiana ([1]; 5% kanamycin, 7 days): 3 fold
- Reduction of amidohydrolase 2 gene expression in pathogen challenged termites (amidohydrolase 2 gene): ~5 ×

Structure (SMILES): O=[N+]([O-])NC1=NCCN1Cc1ccc(Cl)nc1 [I, imidacloprid]
- Effect on expression of innate immune / antimicrobial genes ([2]; gut, 2 days): failed to substantially alter
- Differentially expressed contigs and singletons, Overall [2, 6]: 393
- Downregulated contigs and singletons, Host [2, 6]: 8
- Downregulated contigs and singletons, Mixed [2, 6]: 3
- Downregulated contigs and singletons, Symbiont [2, 6]: 205
- Downregulated contigs and singletons, Totals [2, 6]: 216
- Upregulated contigs and singletons, Mixed [2, 6]: 1
- Upregulated contigs and singletons, Symbiont [2, 6]: 19
- Upregulated contigs and singletons, Totals [2, 6]: 177
- Downregulated array positions [2, 7]: 504
- Upregulated transcripts in the array (array positions) [2, 7]: 260
- Reduction of representative protist groups [3]: 25-50%
- Treated termite colonies with reduced protist populations [3]: 5 of 6
- Termite behaviors (tunneling, grooming, light repellency) (Reticulitermes flavipes): neither produced tunnels nor were repelled by light
- Growth suppression of culturable gut bacteria by imidacloprid-impregnated paper discs [4]: failed to suppress the growth
- Effect on total bacterial DNA abundance (16S PCR signals) [5]: did not detect any impact
